Test results: patent publication US7105521B2, “Eugenosedin-A based pharmacoligical agents” (Syn-Tech Chem & Pharm Co., Ltd., priority 2003, dated 2006)

Tests used:
[1] = Micro-injection in NTS: BP and HR; type: in vivo, rats; conditions: NTS micro-injection, 0.03, 0.3 μmol, within 30 minutes after injection
Excerpt: Micro-injection in NTS. Rats were anesthetized and placed in a David-Kopf stereotaxic instrument. The cerebellum was exposed after removing the skin and occipital bone. […] At the end of experiments, the animals were sacrificed. The brain was removed and sectioned for histological confirmation of the drug application site.

[2] = test system: α1-adrenoceptors; experiment: Noradrenaline-induced contraction of isolated rat thoracic aorta; type: cell-based; conditions: 10^−8, 10^−7, 10^−6 M
Excerpt: (§1) Isolation of rat thoracic aorta. Rat thoracic aorta was removed, cleaned of adhering fat and connective tissue and cut into 3–4 mm wide transverse rings.

[3] = test system: α2-adrenergic receptors; experiment: Clonidine-induced contraction of isolated rat thoracic aorta; type: cell-based; conditions: 10^−8, 10^−7, 10^−6 M
Excerpt: as §1

[4] = biological target: T1, β1-adrenoceptor (Rattus norvegicus, UniProt P18090); experiment: Isoprenaline-induced positive inotropic effect in electrically stimulated rat left atria; type: cell-based; conditions: 10^−8, 10^−7, 10^−6 M, isolated rat left atria
T1 construct: isoprenaline-induced concentration-response curves in isolated rat left atria; from tissue; host or cells: isolated rat left atria
Method: Isolation of rat left atria. Rats of either sex weighing 350–500 g were sacrificed after mild anesthesia with ether, and their hearts were quickly excised. Left atria were dissected from the hearts and mounted in a 10 ml organ bath with one end fixed and the other end connected to a force displacement transducer (Grass, Model FT03). The experiments were carried out at 37° C. in a Krebs solution of the following composition (mM): NaCl 113, KCl 4.8, CaCl2 2.2, KH2PO4 1.2, MgCl2 1.2, NaHCO3 25, Dextrose 11.0; bubbled with a 95% O2+5% CO2 mixture. Atria were pre-stretched to a baseline tension of 0.5 g and equilibrated for 60 min in an aerated Krebs solution before starting experimental protocols. Atria were driven at 2-s intervals via two platinum electrodes on each side. An incubation time of 30 min was allowed for the test compound. Data were calculated as a percentage of the maximum contraction (Wu et al., 2001).

[5] = biological target: α2 receptors; experiment: Receptor binding, [3H]yohimbine, rat cortex; parameters: species or system Wistar rat
Method: (§2) Drugs and chemicals. […] Eugenosedin-A synthesized in this laboratory was solvated in 50% absolute alcohol, 10% propylene glycol and further diluted with distilled water. All of the [^3H] ligand was purchased from New England Nuclear Corp. (Boston, Mass., U.S.A.).
(§3) Receptor binding studies. […] The homogenate was pressure filtered through muslin. Filtrate was centrifuged at 1000 g for 10 min. Supernatant was centrifuged at 10,000 g for 12 min at 4° C. The second supernatant was centrifuged at 30,000 g for 15 min at 4° C. The final pellet was re-suspended in assay buffer (75 mM Tris HCl, 25 mM MgCl2, pH 7.4). Protein content was determined by Bradford's method. Radioligand agents and membranes (200–300 μg) were incubated for 60 min at 25° C. with or without the addition of nonspecific binding agents, in a 75 mM Tris HCl buffer with 25 mM MgCl2, to make a final volume of 500 μl. In competitive-binding experiments, the competing agent was added directly to the incubation mixture. Incubation was terminated by addition of 1 ml of ice-cold assay buffer followed by immediate filtration through Whatman GF/C glass fiber filters supported on a 12-port filter manifold (Millipore). The filters were immediately washed 3 times with 5 ml of ice-cold assay buffer and dried in an oven at 60° C. for 2 hours before adding 5 ml of Triton-toluene-based scintillation fluid. Membrane-bound radioligand trapped in the filters was counted in a Beckman LS6500 scintillation system (Fullerton, Calif., U.S.A) with an efficiency of 45%. In each experiment, nonspecifically bound radioligand agents were determined by incubating membrane protein. Specific binding for each sample was obtained by deducting this value from the total binding of radioligand agents.

[6] = biological target: T2, β1 receptors (Rattus norvegicus, UniProt P18090); experiment: Receptor binding, [3H]CGP-12177, rat ventricle; parameters: species or system Wistar rat
T2 construct: with [^3H]CGP-12177 on β1 receptors in rat ventricle; from tissue; host or cells: Wistar rat heart (ventricle) membranes
Method: as §2
as §3, with “Incubation was terminated by addition of 1 ml of ice-cold assay buffer followed by immediate filtration through Whatman GF/C glass fiber filters supported on a 12-port filter manifold (Millipore). The filters were immediately washed 3 times with 5 ml of ice-cold assay buffer and dried in an oven at 60° C. for 2 hours before adding 5 ml of Triton-toluene-based scintillation fluid.” left out, “Specific binding for each sample was obtained by deducting this value from the total binding of radioligand agents.” left out

[7] = biological target: T3, 5-HT re-uptake sites (Rattus norvegicus, UniProt P31652); experiment: 5-HT re-uptake in cerebral cortex synaptosomes; type: biochemical, Wistar rats
T3 construct: the cerebral cortex or striatum was dissected and crude synaptosomes were prepared; from tissue; host or cells: crude synaptosomes of Wistar rat cerebral cortex
Method: Saline was added to the incubation mixture, which was then filtered through a Whatman GF/B glass filter under reduced pressure. To determine nonspecific uptake, incubation was performed at 0° C.

[8] = test system: Fe2+-ascorbic acid-induced lipid peroxidation; experiment: Lipid peroxidation (TBARS) in rat brain homogenate; type: biochemical; conditions: n=5, read-out: IC50 of inhibition of Fe2+-ascorbic acid-induced lipid peroxidation
Method: Antioxidant and peroxyl radical scavenging activities. Rat brain homogenate was made in 0.9% saline containing 10 mg tissue/ml. The rates of membrane lipid peroxidation were measured by the formation of thiobarbituric acid (TBA)-reactive substance (TBARS). Rat brain homogenates (1 ml) were incubated at 37° C. for 5 min with 10 μl of test compound or vehicle. Lipid peroxidation was initiated by the addition of 0.1 ml of 0.25 mM FeCl2 and 1 mM ascorbic acid (Huang Y C. et al., Drug. Dev. Res., 47:77–89, 1999). After 30 min of incubation, the reaction was stopped by adding 0.1 ml of 0.2% BHT. TBA reagent was then added and the mixture was heated for 30 min in a boiling water bath. TBARS was extracted by n-butanol and measured at 532 nm. The amount of TBARS was quantified using the linear regression obtained from malondialdehyde (MDA) standards.

[9] = Peroxyl radical scavenging, B-phycoerythrin/AAPH; type: biochemical
Method: The stoichiometric factors of the test compounds with hydrophilic peroxyl radicals were calculated by the equation as mentioned Ascorbic acid was used as a positive control.

[10] = test system: IFN-γ; experiment: Plasma cytokine immunoreactivity after LPS: IFN-γ; type: in vivo, Wistar rats; conditions: 3 hours after LPS 10 mg kg^−1 i.v.; pretreatment 1 mg kg^−1 i.v.
Method: Plasma cytokine immunoreactivity and blood glucose. Blood was collected from venous cannula, injected into ice-cold heparinized Eppendorf tubes and centrifuged at 1500 rpm for 10 min at 4° C. Plasma supernatant was stored at −70° C. until analyzed. Solid phase enzyme immunoassay that specifically detects murine IL-1β, IL-6, IFN-γ and TNF-α was used with a detection limit of >10 pg/ml (Endogen, U.S.A). Pretreatment with eugenosedin-A and other agents was performed 15 minutes before intravenous injection of LPS. Blood was collected from venous cannula. Blood glucose was measured with a glucose test strip (Glucotide, Bayer, U.S.A) at 1, 3 and 5 hours.

T3 sequence (P31652 whole entry): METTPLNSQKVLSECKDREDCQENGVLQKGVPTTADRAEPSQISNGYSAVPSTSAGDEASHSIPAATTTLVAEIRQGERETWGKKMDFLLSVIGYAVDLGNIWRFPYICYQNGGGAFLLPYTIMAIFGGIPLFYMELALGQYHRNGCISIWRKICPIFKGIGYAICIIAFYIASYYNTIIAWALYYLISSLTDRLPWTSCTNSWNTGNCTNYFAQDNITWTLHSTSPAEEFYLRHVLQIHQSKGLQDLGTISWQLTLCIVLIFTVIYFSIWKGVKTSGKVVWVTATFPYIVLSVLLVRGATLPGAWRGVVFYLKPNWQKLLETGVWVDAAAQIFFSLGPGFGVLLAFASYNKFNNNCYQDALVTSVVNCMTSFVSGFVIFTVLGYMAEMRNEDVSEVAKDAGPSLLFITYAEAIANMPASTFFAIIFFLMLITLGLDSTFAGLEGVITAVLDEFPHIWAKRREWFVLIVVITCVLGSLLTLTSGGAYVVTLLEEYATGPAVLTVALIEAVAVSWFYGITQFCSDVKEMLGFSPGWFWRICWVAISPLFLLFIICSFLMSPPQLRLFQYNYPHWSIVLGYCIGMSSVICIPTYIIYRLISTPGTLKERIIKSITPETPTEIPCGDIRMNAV
T1 sequence (P18090 whole entry): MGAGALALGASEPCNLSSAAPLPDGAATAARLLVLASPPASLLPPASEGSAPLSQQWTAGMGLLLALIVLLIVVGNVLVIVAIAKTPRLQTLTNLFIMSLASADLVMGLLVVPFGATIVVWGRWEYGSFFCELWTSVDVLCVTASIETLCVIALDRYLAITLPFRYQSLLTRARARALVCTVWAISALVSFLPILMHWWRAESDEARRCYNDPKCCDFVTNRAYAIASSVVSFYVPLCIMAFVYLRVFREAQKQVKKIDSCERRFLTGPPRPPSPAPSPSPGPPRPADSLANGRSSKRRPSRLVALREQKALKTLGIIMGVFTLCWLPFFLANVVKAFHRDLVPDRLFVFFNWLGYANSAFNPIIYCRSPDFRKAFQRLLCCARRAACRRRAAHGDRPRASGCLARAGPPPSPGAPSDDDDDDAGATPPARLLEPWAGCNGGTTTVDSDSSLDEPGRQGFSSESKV
T2 sequence (P18090 whole entry): as above

For CC=Cc1ccc(OCC(O)CN2CCN(c3ccccc3Cl)CC2)c(OC)c1 (centres unmarked) [eugenosedin-A], the “pressor response and HR” value [1] was “mild, but significant, pressor responses and increased the HR”, the “cumulative noradrenaline-induced contractile activities” value [2] was “competitively inhibited” and the “cumulative clonidine-induced contractile activities” value [3] was “competitively inhibited”. For the same compound, the “cumulative isoprenaline-induced positive inotropic effects” value [4] was “concentration-dependently inhibited”, the Ki [5] was 1390 nM and the “order of α2 receptor binding potency” value [5] was “prazosin >eugenosedin-A >ketanserin >methylsergide >propranolol and 5-HT”. The “binding affinity for β1-adrenoceptors” value [6] was “some binding affinity for β1-adrenoceptors”, the IC50 [7] was 34300 nM and the IC50 [8] was 2680 ± 50 nM. The “scavenging of AAPH-derived peroxyl radicals (B-phycoerythrin fluorescence, lag time)” value [9] was “concentration-dependent decrement of fluorescence and prolongation of the lag time” and the “LPS-induced increase in IFN-γ” value [10] was “significantly inhibited”.
